Results reported in article PMC12002301, “Discovery and functional characterization of a bombesin-type neuropeptide signaling system in an invertebrate” (Proceedings of the National Academy of Sciences of the …, 2025).

Test system: ArBNR2(G272)
Assay: Luminescence (GFP-aequorin Ca2+) assay, CHO-K1 cells coexpressing ArBNR2(G272) and Gqs5
Type: cell-based, Asterias rubens
Conditions: words, up to 10^-5 M
From the text: Having identified ArBN and ArBN5-14 as peptides that are naturally derived from ArBNP in A. rubens, we then sought to identify receptors that these peptides may act as ligands for. BLAST analysis of transcriptome/genome data identified eleven candidate BN-type receptors, which we refer to as ArBNR1-11. Homologs of this family of proteins were also identified in other echinoderms. […] Accordingly, a modified form of ArBNR2 in which the glutamate residue at position 272 is substituted with glycine, ArBNR2(G272), also has seven predicted transmembrane domains (SI Appendix, SI Methods). […]
domains and other structural features (9). The topology of […] of the potential A. rubens BN-type receptors as predicted by Protter V1.0 comprised seven transmembrane domains, as expected for a GPCR. However, the topology of the proteins encoded by contig 1110162 and contig 1110464 comprised only six and four transmembrane domains, respectively. Analysis of the transcript […]
To determine the complete open reading frame of ArBNR2, contig 1110162 was used as a query for blastx analysis of A. rubens genome sequence data on NCBI and accession no. […] The protein (XP_033631283.1 referred to henceforth as ArBNR2) was analysed using […]
Having discovered that MgBNR2 has the expected topology for a GPCR when analysed using both Protter and DeepTMHMM, we then compared its sequence to ArBNR2. […]

Substance | peptide-induced luminescence
EPMPSSLALYIANLSP-NH2 [ArBNP65-81, C-terminally amidated 16-residue peptide predicted to be derived from residues 65 to 81 of ArBNP] | did not trigger luminescence
NYNRVFGPTY-NH2 [ArBN5-14, C-terminally amidated 10-residue peptide corresponding to the C-terminal region of ArBN] | did not trigger luminescence
